This note sets out measurements from patent publication US5399691A, “Substituted benzoylurea derivatives or their salts” (Ishihara Sangyo Kaisha Ltd., priority 1991, dated 1995).

By ILS is commonly meant the gain in survival time of treated over control animals, in per cent. What is called solubility is the concentration that dissolves in the medium under given conditions.

One series has as its system P-388 leukemia. Description: Antitumor activity against P-388 leukemia, increase life span (Test Example 1). It is filed as in vivo, BDF1 mouse (murine). As to conditions: Mus musculus, P388, intravenous, days 1, 5 and 9. The text has this: The compounds of the present invention are effective against experimental murine tumors such as P-388 leukemia, L-1210 leukemia, B-16 melanoma, M-5076 sarcoma, Colon 38, Colon 26 and Lewis lung carcinoma. On the other hand, certain in vivo test systems and protocols have been developed by National Cancer Institute for testing compounds to determine the effectiveness of test compounds as antineoplastic agents. These have been reported in "Cancer Chemotherapy Reports", Part III, Vol. 3, No. 2 (1972) written by Deran, Greenberg, MacDonald, Schumacher and Abott. P-388 leukemia is the most standard experimental murine tumor, and it is known that many of drugs effective against human tumor are also effective against this leukemia. Generally, the effectiveness of a drug for these experimental murine tumors is evaluated by the extended median survival time of a test mouse group to which a test drug is administered on the basis of the median survival time of a control mouse group to which no drug is administered. If the extended median survival time is at least 25-30% longer, the administered drug is determined to be effective.
1×10^6 of P-388 leukemia cells per mouse were intraperitoneally transplanted into BDF1 mouse. Each formulation was intraperitoneally or intravenously administered on the 1st, 5th and 9th days after the transplantation.
The increase life span of each group was determined by comparing the median survival time (days) of a test group to which a test drug is administered and the median survival time (days) of a control group to which physiological saline was administered at the same part as in the case of the test group. Among the tested drug formulations, the compounds of the present invention were formulated in accordance with the below-mentioned Formulation Example 1, and the comparative compounds as shown in Table 8 were formulated in accordance with the below-mentioned Formulation Example 2.
(Note) * Increase life span is calculated by the following equation:
Increase life span % (ILS)=(a/b×100)-100 a: Median survival days of test group of drug administration b: Median survival days of control group of physiological saline administration 0.125 part by weight of the above mentioned Compound No. 1 was dissolved in 5 parts by weight of N,N-dimethylacetamide and 5 parts by weight of polyoxyethylene sorbitan monooleate, and 90 parts by weight of physiological saline was added thereto to form a solution formulation in an agate mortar.
0.125 part by weight of Comparative Compound No. 1 was dissolved in 5 parts by weight of N,N-dimethylacetamide and 5 parts by weight of polyoxyethylene sorbitan monooleate, and 90 parts by weight of physiological saline was added thereto to form a suspension formulation in an agate mortar.

Series [1] in a line: Solubility in water-soluble solvent by HPLC (Test Example 2). In kind it is physicochemical. The protocol: About 2 mg of each of the compounds of the present invention shown in the following Table 7 was accurately weighed, and was completely dissolved in 2 ml of N,N-dimethylacetamide. The content was then transferred into a 10 ml-measuring flask, and its volume was made constant with acetonitrile. 3 ml of the resultant solution was placed in a 50 ml-measuring flask, and its volume was adjusted constant with acetonitrile to prepare a standard solution. Next, about 2 mg of each of the compounds of the present invention was weighed, and was placed in an agate mortar. Thereafter, 1.5 ml of a test liquid (water-soluble solvent) was added thereto, and the content was mixed for 5 minutes. A suspension thus obtained, was transferred into a 1.5 ml-microtube, and was centrifuged at 15,000 r.p.m. for 10 minutes. The supernatant fluid was placed in a 1 ml-microtube, and was centrifuged again under the same conditions. 0.1 ml of the supernatant fluid thus obtained was diluted with 0.9 ml of acetonitrile to prepare a measuring liquid. The above standard solution and the measuring liquid were analyzed by high pressure liquid chromatography (HPLC), and their solubilities were measured by absolute calibration curve method.
Column: Nucleosil 5 C18, diameter=4.6 mm, length=250 mm
Mobile phase: acetonitrile/water/acetic acid=60/40/0.1
Detection: UV 265 nm, Column temperature: 40° C.,
Sensitivity: 0.005 AUFS or 0.16 AUFS,

Another series in a line: Acute toxicity. In kind it is in vivo. To be noted: mouse, in vivo; BDF1 mice, intravenous, Formulation Example 1; read-out: acute toxicity value (LD 50). How it is done:
(§1) None of BDF1 mice were dead by intravenously administering each formulation of Compound Nos. 1 to 9, 20, 49 and 53 of the present invention prepared in accordance with Formulation Example 1 in an amount of 25 mg/kg mouse (on the basis of compound).
(§2) 0.125 part by weight of the above mentioned Compound No. 1 was dissolved in 5 parts by weight of N,N-dimethylacetamide and 5 parts by weight of polyoxyethylene sorbitan monooleate, and 90 parts by weight of physiological saline was added thereto to form a solution formulation in an agate mortar.

In another series the test system is BDF1 mice. As to the kind of experiment: Acute toxicity. It is filed as in vivo. To be noted: intravenous, 25 mg/kg mouse, Formulation Example 1. How it is done:
as §1, §2

The structures appear in SMILES notation. Converted amounts (≈) assume the structure as drawn. Where two headings read alike, the source gives them in different places.

In the series with P-388 leukemia (12.5 mg/kg), `Cc1cc(NC(=O)NC(=O)c2ccccc2NC(=O)CN(C)C)ccc1Oc1ncc(Br)cn1` [compound 20, N-[4-(5-bromo-2-pyrimidinyloxy)-3-methylphenyl]-N'-[2-(N,N-dimethylglycyl)amino]benzoylurea] came in with an ILS at 12.5 mg/kg of 36%. The increase in lifespan (ILS) at 25 mg/kg in the series with P-388 leukemia (25 mg/kg) came out at 155%. For the same compound, the solubility was determined as 20 mg/mL (≈ 37.9 mM) in series [1] (10% peg 400 aqueous, organic solvent or mixture, 10% polyethylene glycol #400 aqueous solution, read-out: Solubility, test solution C); 19 mg/mL (≈ 36 mM) in series [1] (distilled water, water, read-out: Solubility, test solution A); 3 mg/mL (≈ 5.69 mM) in series [1] (physiological saline, read-out: Solubility, test solution B). Besides, the LD50 in “Acute toxicity” was no less than 25 mg/kg. For the same compound, the BDF1 mice dead entry with BDF1 mice is “None”.
